Data set [1] deals with T1, serotonin reuptake (SSRI) (Rattus norvegicus, UniProt P31652).
T1 construct: from tissue
Put plainly: Serotonin reuptake inhibition (SSRI), receptor binding studies. It is filed as biochemical. The text has this:
(§1) In-vitro evidence of interaction with the above-mentioned receptors can be provided, for example, as described in the following references: • 5-HT1A: Cossery J. M., Gozlan H., Spampinato U., Perdicakis C., Guillaumet G., Pichat L., Hamon M., 1987. The selective labeling of central 5-HT1A receptor binding sites by [3H]5-methoxy-3-(di-n-propylamino)chroman. Eur. J. Pharmacol. 140,143-55. • 5-HT2A: Klockow M., Greiner H. E., Haase A., Schmitges C.-J., Seyfried C. 1986. Studies on the receptor profile of bisoprolol. Arzneimittelforschung 36,197-200. • SSRI: Wong, D T, Bymaster, F P, Mayle, D A. Reid, L R, Krushinski, J H, Robertson, D W. LY248686, a new inhibitor of serotonin and norepinephrine uptake. Neuropsychopharmacology 8, 23-33, 1993
(§2) As illustrative of two compounds of the formula I, receptor binding constants determined by the test systems described at the outset are indicated below: […]

The next data set deals with 5-HT2A (UniProt P14842). In words: 5-HT2A receptor binding.
Description: as §1, §2

Another data set deals with T2, 5-HT1A (Rattus norvegicus, UniProt P19327).
T2 construct: from tissue
T2 sequence (P19327 1-422): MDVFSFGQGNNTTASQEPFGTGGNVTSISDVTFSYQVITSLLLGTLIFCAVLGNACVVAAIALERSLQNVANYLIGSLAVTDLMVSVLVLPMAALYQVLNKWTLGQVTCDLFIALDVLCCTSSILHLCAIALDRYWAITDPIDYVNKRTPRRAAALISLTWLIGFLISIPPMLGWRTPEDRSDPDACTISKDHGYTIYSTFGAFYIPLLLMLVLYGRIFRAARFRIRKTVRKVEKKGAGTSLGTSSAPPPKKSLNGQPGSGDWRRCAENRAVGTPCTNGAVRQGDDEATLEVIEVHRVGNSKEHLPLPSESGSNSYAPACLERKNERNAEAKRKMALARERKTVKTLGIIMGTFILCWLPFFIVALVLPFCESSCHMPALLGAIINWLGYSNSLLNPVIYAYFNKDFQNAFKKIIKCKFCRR
In words: 5-HT1A receptor binding.
Description: as §1, §2

The results in this text go back to patent publication US20060122191A1, “N-(indolethyl-)cycloamine compounds” (priority 2002, published 2006).

Where a name gives a salt, the structure may show the parent alone. Read-outs that look alike come from different tables or passages of the source.

T1 sequence (P31652 whole entry): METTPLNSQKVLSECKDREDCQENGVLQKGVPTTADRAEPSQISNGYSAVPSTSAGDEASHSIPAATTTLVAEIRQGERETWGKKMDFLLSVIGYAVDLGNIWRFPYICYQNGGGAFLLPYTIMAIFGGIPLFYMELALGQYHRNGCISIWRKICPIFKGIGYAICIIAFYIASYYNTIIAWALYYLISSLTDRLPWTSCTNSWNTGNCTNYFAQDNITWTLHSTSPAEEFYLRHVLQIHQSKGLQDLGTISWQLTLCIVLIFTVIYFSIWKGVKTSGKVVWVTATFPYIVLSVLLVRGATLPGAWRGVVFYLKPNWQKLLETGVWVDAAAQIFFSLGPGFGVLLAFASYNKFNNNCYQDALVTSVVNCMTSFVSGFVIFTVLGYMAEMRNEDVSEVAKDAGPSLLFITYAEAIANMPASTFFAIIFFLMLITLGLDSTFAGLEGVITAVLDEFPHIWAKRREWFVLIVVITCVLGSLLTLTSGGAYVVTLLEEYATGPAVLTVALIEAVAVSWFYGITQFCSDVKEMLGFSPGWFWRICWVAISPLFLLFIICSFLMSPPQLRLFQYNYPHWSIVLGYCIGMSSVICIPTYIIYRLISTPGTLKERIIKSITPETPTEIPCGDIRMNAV

As for `N#Cc1ccc2[nH]cc(CCN3CCN(c4cccc5nsnc45)CC3)c2c1` [b), 3-[2-(4-Benzo-1,2,5-thiadiazol-4-yl-piperazin-1-yl)ethyl]-1H-indole-5-carbonitrile], the Ki in data set [1] came to 4.3 nM; at 5-HT2A (read-out: receptor binding constant 5-HT2A; test system per Klockow et al. 1986), 7.3 nM; at 5-HT1A (test system per Cossery et al. 1987, read-out: receptor binding constant 5-HT1A), 110 nM.

With `N#Cc1ccc2[nH]cc(CCN3CCN(c4cccc5c4OCCO5)CC3)c2c1` [a), 3-{2-[4-(2,3-Dihydrobenzo-1,4-dioxin-5-yl)piperazin-1-yl]ethyl}-1H-indole-5-carbonitrile], the Ki was 11 nM in data set [1] (test system per Wong et al. 1993, read-out: receptor binding constant SSRI); 11 nM at 5-HT2A (test system per Klockow et al. 1986; read-out: receptor binding constant 5-HT2A); 17 nM at 5-HT1A.

`N#Cc1ccc2[nH]cc(CCN3CCN(c4cccc5c4OCCO5)CC3)c2c1` (as salt: hydrochloride) [a), 3-{2-[4-(2,3-Dihydrobenzo-1,4-dioxin-5-yl)piperazin-1-yl]ethyl}-1H-indole-5-carbonitrile] yielded a melting point of 277.5 to 278.5 °C.
